Assay results as given in US8486947B2, “Treatment of Parkinson's disease, obstructive sleep apnea, dementia with Lewy bodies, vascular dementia with non-imidazole alkylamines histamine H3-receptor ligands” (Bioprojet, priority 2005, dated 2013).

How the values were obtained:
histamine H3-receptor = conditions: literature reports; cited from earlier work
PD patients = conditions: cited from earlier work
[1] = test system: patients suffering from obstructive sleep apnea (OSA); test: Two clinical studies (single-blinded or double-blinded against placebo, polysomnographical test) in OSA patients; assay type: in vivo, human; conditions: 40 mg p.o. once a day during 3 and 7 days
Description: Two clinical studies were conducted on patients suffering from obstructive sleep apnea (OSA), in a single-blinded or double-blinded trial against placebo with a polysomnographical test on patients.
In both studies, patients were administered with 3-(4-Chlorophenyl)propyl 3-piperidinopropyl ether at 40 mg p.o. once a day during 3 and 7 days.
In both studies, daytime sleepiness was improved in accordance with the Epworth test or according to the frequency of naps or daytime sleepiness occurrences. The average daytime sleepiness could be reduced by up to 50%.

[2] = test system: MPTP-treated cats (experimentally induced parkinsonism); test: Sleep-wakefulness patterns by electromyographic and EEG recordings in MPTP-treated parkinsonian cats; assay type: in vivo, cat; conditions: oral dose of 10 mg/kg
Description: As assessed by electromyographic and EEG recordings, treatment with BF 2.-649 (3-(4-Chlorophenyl)propyl 3-piperidinopropyl ether), a potent and selective H3-antagonist, at an oral dose of 10 mg/kg, normalized these sleep-wakefulness patterns.

rats = test: Tolerability of the combinations with acetylcholinesterase inhibitors in rats; assay type: in vivo, rat; conditions: combination with donepezil, rivastigmine or gallanthamine
Description: (§1) Generally, dementia with Lewi bodies is treated with acetylcholinesterase inhibitors such as donepezil, rivastigmine or gallanthamine. These agents increase the acetylcholine concentration in the is brain extracellular space. Combinations of a compound of the invention and one of these agents were tested on rats. The drug was selected from donepezil, rivastigmine or gallanthamine and administered in combination with 3-(4-Chlorophenyl)propyl 3-piperidinopropyl ether in rats.

[3] = test system: humans suffering from Parkinson; test: Combination with an anti-parkinson drug in humans suffering from Parkinson; assay type: in vivo, human; conditions: 40 mg p.o.
Description: (§2) Combinations of a compound of the invention and a anti-parkinson drug were tested on rats and humans suffering from Parkinson.

[4] = test system: patients with a diagnostic of OSA; test: Single-blind trial against placebo in male patients with obstructive sleep apnea, 3-day treatment; assay type: in vivo, human; conditions: 40 mg oral once a day, 3 days
Description: In a group of 10 male patients with a diagnostic of OSA, confirmed by polysomnography performed during a night in an hospital setting, an Epswoth score above 12 and a body mass index of less than 35, the effect of a 3-day treatment with BF 2.649 (3-(4-Chlorophenyl)propyl 3-piperidinopropyl ether) was assessed in a single-blind trial against placebo, at a fixed oral dose of 40 mg once a day.
In addition the nocturnal sleep duration was not decreased and its quality was improved. This clinical trial establishes for the first time the utility of H3 antagonists/inverse agonists in OSA.

[5] = test system: rats suffering from Parkinson; test: Combination with an anti-parkinson drug in rats; assay type: in vivo, rat
Description: as §2

[6] = test system: acetylcholine concentration in brain; test: Rat brain microdialysis of acetylcholine, combination with acetylcholinesterase inhibitors; assay type: in vivo; conditions: rats, co-administered with donepezil, rivastigmine or gallanthamine
Description: as §1

[7] = test system: Parkinsonian rat (unilateral 6-hydroxydopamine); conditions: 6-hydroxydopamine rat, co-administered with levodopa; cited from earlier work
[8] = combination with anti-parkinson drug
[9] = combination with ropinirole, lisuride, bromocriptine, levodopa or pramiprexole

c1ccc(C2(N3CCCCC3)CCCCC2)cc1 [phencyclidine]
H3-receptor antagonism potency (histamine H3-receptor): very low potency

CN(C)CCCSC(=N)N [dimaprit]
H3-receptor antagonism potency (histamine H3-receptor): very low potency

NC(=O)C[S+]([O-])C(c1ccccc1)c1ccccc1 (stereo not shown) [modafinil]
treatment of excessive daytime sleepiness (PD patients): limited success

Clc1ccc(CCCOCCCN2CCCCC2)cc1 [BF 2.649, 3-(4-Chlorophenyl)propyl 3-piperidinopropyl ether]
daytime sleepiness (Epworth test, frequency of naps or daytime sleepiness occurrences) [1]: improved
reduction of average daytime sleepiness [1]: up to 50%
long periods of sleep (model of excessive daytime sleepiness) [2]: largely suppressed
sleep-wakefulness patterns ([2]; EMG and EEG recordings): normalized
tolerability, in particular cardiovascular parameters (rats): well tolerated
dose of the anti-parkinson drug needed [3, 8]: allowed lower doses
motor symptoms [3, 9]: significantly improved
nocturnal sleep duration [4]: not decreased
nocturnal sleep quality [4]: improved
occurrence of diurnal sleep episodes [4]: total prevention
decrease in the number of diurnal somnolence episodes ([4]; all subjects): more than 60%
dose of the anti-parkinson drug needed [5, 8]: allowed lower doses
motor symptoms [5, 9]: significantly improved
increase of the acetylcholine concentration in brain (microdialysis) [6]: potentialised

CNCCc1ccccn1 [betahistine]
H3-receptor antagonism potency (histamine H3-receptor): very low potency

S=C(NC1CCCCC1)N1CCC(c2cnc[nH]2)CC1 [thioperamide]
effect of levodopa on turning behaviour upon co-administration [7]: not modified
